Where a name gives a salt, the structure may show the parent alone.
Biological target: MASP-2 CCP2-SP (Homo sapiens (Human), UniProt O00187)
Assay: MASP-2 co-crystallization, X-ray crystallography and structure analysis (H-bonds, van der Waals contacts);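 for Ligand-pharmacophore element distance, pharmacophore element C2: distance from averaged pharmacophore element to bound ligand; missing value means element absent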;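 for Ligand-pharmacophore element distance, pharmacophore element C3: distance from averaged pharmacophore element to bound ligand; missing value means element absent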;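 for Ligand-pharmacophore element distance, pharmacophore element C4: distance from averaged pharmacophore element to bound ligand; missing value means element absent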;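 for Ligand-pharmacophore element distance, pharmacophore element C5: distance from averaged pharmacophore element to bound ligand; missing value means element absent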
Parameters: van der Waals contact distance, MASP-2 HIS 483 atom CD2 / van der Waals contact distance, MASP-2 HIS 483 atom NE2 / van der Waals contact distance, SER 654 C to compound atom / van der Waals contact distance, SER 654 O to compound atom / van der Waals contact distance, TRP 655 C to compound atom / van der Waals contact distance, MASP-2 GLY 528 atom CA / van der Waals contact distance TRP 655 atom CZ3 / van der Waals contact distance TRP 655 atom N / van der Waals contact distance TRP 655 atom CE3 / van der Waals contact distance GLY 656 atom C / van der Waals contact distance GLY 656 atom CA / van der Waals contact distance GLY 656 atom O / van der Waals contact distance, MASP-2 TYR 607 atom CD1 / van der Waals contact distance, MASP-2 PRO 606 atom O / d(C3,CA1) / d(CA1,N1)2 / d(H4,O1) / d(H4,O2) / d(O1,O2) / d(CA1,O2) / d(CA6,O1) / d(CA6,O2) / d(CA1,C5) / d(O2,H3) / d(N2,C2) / d(CA5,N2) / d(N2,C4) / d(N2,C6) / d(N2,CA3) / d(N2,O3) / d(O4,H2): unit not given beside the values
Conditions: for Ligand-pharmacophore element distance, pharmacophore element C2 / Ligand-pharmacophore element distance, pharmacophore element C3 / Ligand-pharmacophore element distance, pharmacophore element C4 / Ligand-pharmacophore element distance, pharmacophore element C5 / Ligand-pharmacophore element distance, pharmacophore element C6 / Ligand-pharmacophore element distance, pharmacophore element C7 / Ligand-pharmacophore element distance, pharmacophore element CA1 / Ligand-pharmacophore element distance, pharmacophore element CA2 / Ligand-pharmacophore element distance, pharmacophore element CA3 / Ligand-pharmacophore element distance, pharmacophore element CA4 / Ligand-pharmacophore element distance, pharmacophore element CA5 / Ligand-pharmacophore element distance, pharmacophore element CA6: Table A4-1
Method in brief: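 E. coli-expressed CCP2-SP (±6His); apo crystals soaked 1–2× in inhibitor-containing crystallization solution; optional 20% glycerol cryoprotection, LN2 flash-cool; synchrotron data at 1.0 wavelength; MR using 1Q3X portions, partial refinement; single pose analysed when several seen.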

[1] = Table A5-1 pharmacophore: distance between elements, S2/S1 region
[2] = Table A5-2 pharmacophore distance, S3/S4 region
[3] = Table A7-1, between pharmacophore elements of the bound compound
[4] = Table A7-2, between pharmacophore elements of the bound compound

Sequence of MASP-2 CCP2-SP (O00187 445-686): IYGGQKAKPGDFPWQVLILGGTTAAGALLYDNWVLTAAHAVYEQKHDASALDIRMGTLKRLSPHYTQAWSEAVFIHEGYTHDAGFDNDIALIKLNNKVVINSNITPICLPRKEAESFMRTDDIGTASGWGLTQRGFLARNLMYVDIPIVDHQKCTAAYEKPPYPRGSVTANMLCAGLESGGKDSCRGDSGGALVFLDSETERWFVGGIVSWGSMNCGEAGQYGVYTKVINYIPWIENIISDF
Sequence of MASP-2 CCP2-SP (O00187 364-432 partner): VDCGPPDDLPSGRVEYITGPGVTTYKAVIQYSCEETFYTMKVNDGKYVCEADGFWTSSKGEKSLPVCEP

In the case of `C[C@H](NC(=O)[C@H](N)CCc1ccccc1)C(=O)NCc1cc(Cl)ccc1O` [compound 1031, (R)-2-Amino-N—((S)-1-((5-chloro-2-hydroxybenzyl)amino)-1-oxopropan-2-yl)-4-phenylbutanamide Hydrochloride], the “H-bond distance to MASP-2 ARG 630 atom NH1 (second bond)” value (Table A1 (H-Bonds), ARG 630 NH1) is reported as 2.83, the “H-bond distance to MASP-2 GLY 656 atom O” value (Table A1 (H-Bonds), GLY 656 O) is reported as 2.67 and the “van der Waals contact distance, MASP-2 HIS 483 atom CD2” value (Table A2-1) is reported as 3.57. For the same compound, the “van der Waals contact distance, MASP-2 HIS 483 atom CE1” value (Table A2-1) was 3.62, the “van der Waals contact distance, MASP-2 HIS 483 atom NE2” value (Table A2-1) was 3.17 and the “van der Waals contact distance, MASP-2 PHE 529 atom CE2” value (Table A2-3) was 3.75. For the same compound, the “van der Waals contact distance, MASP-2 TYR 607 atom CD1” value (Table A2-4) was 3.85, the “van der Waals contact distance, MASP-2 amino acid atom to compound atom” value (Table A2-9 second part, ARG 630, AA atoms N, NE, NH1, Hydrochloride) was 3.34 and the “van der Waals contact distance, VAL 653 CG1 to compound atom” value (Table A2-11) was 3.58. The “van der Waals contact distance, SER 654 C to compound atom” value (Table A2-11, Hydrochloride) was 3.56, the “van der Waals contact distance, TRP 655 C to compound atom” value (Table A2-12, Hydrochloride) was 3.26 and the “van der Waals contact distance, TRP 655 CA to compound atom” value (Table A2-12, Hydrochloride) was 3.64. The “van der Waals contact distance GLY 656 atom C” value (Table A2-13, MASP-2 GLY 656 C) was 3.61, the “van der Waals contact distance TRP 655 atom CE3” value (Table A2-13, MASP-2 TRP 655 CE3, compound atom in line below) was 3.49 and the “van der Waals contact distance TRP 655 atom N” value (Table A2-13, MASP-2 TRP 655 N) was 3.28.

With `CC(=O)Nc1ccc(CCNC(CCc2ccccc2)C(=O)NC(C)C(=O)NCc2ccc(C(=N)N)cc2)cc1.Cl.Cl` (centres unmarked) [1345_1] the “Ligand-pharmacophore element distance, pharmacophore element C2” value was 0, the “Ligand-pharmacophore element distance, pharmacophore element C3” value was 0 and the “Ligand-pharmacophore element distance, pharmacophore element C4” value was 0. The “Ligand-pharmacophore element distance, pharmacophore element C5” value was 0, the “Ligand-pharmacophore element distance, pharmacophore element C6” value was 0 and the “Ligand-pharmacophore element distance, pharmacophore element C7” value was 0. The “Ligand-pharmacophore element distance, pharmacophore element CA1” value was 0.51, the “Ligand-pharmacophore element distance, pharmacophore element CA2” value was 1.2 and the “Ligand-pharmacophore element distance, pharmacophore element CA3” value was 1.44. The “Ligand-pharmacophore element distance, pharmacophore element CA4” value was 0, the “Ligand-pharmacophore element distance, pharmacophore element CA5” value was 0 and the “Ligand-pharmacophore element distance, pharmacophore element CA6” value was 0. The “d(CA1,O1)” value [1] was 4.52, the “d(CA1,O2)” value [1] was 4.49 and the “d(H4,O1)” value [1] was 4.08. For the same compound, the “d(H4,O2)” value [1] was 3.57, the “d(O1,O2)” value [1] was 3.48 and the “d(N2,CA2)” value [2] was 6.14. The “d(N2,CA3)” value [2] was 5.17, the “d(N2,O3)” value [2] was 8.75 and the “d(O2,H3)” value [2] was 5.98. For the same compound, the “d(O2,N2)” value [2] was 2.90, the “a(CA1, O1, O2)” value (Table A6-1 pharmacophore angle) was 112.39 and the “a(O1, O2, H4)” value (Table A6-1 pharmacophore angle) was 126.38. For the same compound, the “a(O1, O2, H3)” value (Table A6-2 pharmacophore angle) was 149.79, the “a(O1, O2, N2)” value (Table A6-2 pharmacophore angle) was 134.33 and the “a(O2, N2, CA2)” value (Table A6-2 pharmacophore angle) was 153.15. The “a(O2, N2, CA3)” value (Table A6-2 pharmacophore angle) was 153.91, the “a(O2, N2, O3)” value (Table A6-2 pharmacophore angle) was 163.54 and the “Pharmacophore torsion angle a(H4, O1, O2, H3)” value [3] was 39.71. For the same compound, the “Pharmacophore torsion angle a(H4, O1, O2, N2)” value [3] was 114.36, the “Pharmacophore torsion angle a(O1, H4, O2, CA1)” value [3] was −62.84 and the “Pharmacophore torsion angle a(O1, O2, N2, CA2)” value [4] was 138.94. For the same compound, the “Pharmacophore torsion angle a(O1, O2, N2, CA3)” value [4] was −27.29 and the “Pharmacophore torsion angle a(O1, O2, N2, O3)” value [4] was −11.99.

With `Cc1nc(N)ccc1CNC(=O)[C@H](C)NC(=O)[C@H]1C[C@@H](c2cccc3ccccc23)CCN1.Cl.Cl` [1297_5] the “Ligand-pharmacophore element distance, pharmacophore element C2” value was 0.24, the “Ligand-pharmacophore element distance, pharmacophore element C3” value was 0.29 and the “Ligand-pharmacophore element distance, pharmacophore element C4” value was 0. The “Ligand-pharmacophore element distance, pharmacophore element C5” value was 0, the “Ligand-pharmacophore element distance, pharmacophore element C6” value was 0 and the “Ligand-pharmacophore element distance, pharmacophore element C7” value was 0. For the same compound, the “Ligand-pharmacophore element distance, pharmacophore element CA1” value was 0.44, the “Ligand-pharmacophore element distance, pharmacophore element CA2” value was 0.07 and the “Ligand-pharmacophore element distance, pharmacophore element CA3” value was 0. For the same compound, the “Ligand-pharmacophore element distance, pharmacophore element CA4” value was 1.22, the “Ligand-pharmacophore element distance, pharmacophore element CA5” value was 0 and the “Ligand-pharmacophore element distance, pharmacophore element CA6” value was 0. The “d(C3,CA1)” value [1] was 2.86, the “d(CA1,N1)2” value [1] was 1.38 and the “d(CA1,O1)” value [1] was 4.59. For the same compound, the “d(CA1,O2)” value [1] was 3.88, the “d(H4,O1)” value [1] was 4.56 and the “d(H4,O2)” value [1] was 3.82. For the same compound, the “d(O1,O2)” value [1] was 3.43, the “d(N2,C2)” value [2] was 1.43 and the “d(N2,CA2)” value [2] was 5.69. For the same compound, the “d(O2,H3)” value [2] was 4.06, the “d(O2,N2)” value [2] was 2.67 and the “a(C3, CA1, O1)” value (Table A6-1 pharmacophore angle) was 150.41. The “a(CA1, O1, O2)” value (Table A6-1 pharmacophore angle) was 102.43, the “a(O1, O2, H4)” value (Table A6-1 pharmacophore angle) was 132.64 and the “a(N1, CA1, O1) b)” value (Table A6-1 pharmacophore angle, Methyl-amino-pyridine compounds) was 174.11. For the same compound, the “a(O1, O2, H3)” value (Table A6-2 pharmacophore angle) was 146.79, the “a(O1, O2, N2)” value (Table A6-2 pharmacophore angle) was 147.10 and the “a(O2, N2, C2)” value (Table A6-2 pharmacophore angle) was 132.77. For the same compound, the “a(O2, N2, CA2)” value (Table A6-2 pharmacophore angle) was 157.05, the “Pharmacophore torsion angle a(C3, CA1, O1, H4)” value [3] was 30.12 and the “Pharmacophore torsion angle a(H4, O1, O2, H3)” value [3] was 47.86. The “Pharmacophore torsion angle a(H4, O1, O2, N2)” value [3] was 144.38, the “Pharmacophore torsion angle a(N1, CA1, O1, H4)” value [3] was 10.41 and the “Pharmacophore torsion angle a(O1, H4, O2, CA1)” value [3] was −86.41. The “Pharmacophore torsion angle a(O1, O2, N2, C2)” value [3] was 111.81, the “Pharmacophore torsion angle a(O1, O2, N2, CA2)” value [4] was 122.50 and the “Pharmacophore torsion angle a(O1, O2, N2, CA4)” value [4] was 101.00.

In the case of `C[C@H](NC(=O)[C@H]1C[C@@H](c2ccccc2)CCN1)C(=O)NCc1cc(Cl)ccc1O.Cl` [1078_7], the “Ligand-pharmacophore element distance, pharmacophore element C2” value is reported as 0.64, the “Ligand-pharmacophore element distance, pharmacophore element C3” value is reported as 0 and the “Ligand-pharmacophore element distance, pharmacophore element C4” value is reported as 0. The “Ligand-pharmacophore element distance, pharmacophore element C5” value was 0.61, the “Ligand-pharmacophore element distance, pharmacophore element C6” value was 0 and the “Ligand-pharmacophore element distance, pharmacophore element C7” value was 0. The “Ligand-pharmacophore element distance, pharmacophore element CA1” value was 1.69, the “Ligand-pharmacophore element distance, pharmacophore element CA2” value was 0.55 and the “Ligand-pharmacophore element distance, pharmacophore element CA3” value was 0. The “Ligand-pharmacophore element distance, pharmacophore element CA4” value was 0, the “Ligand-pharmacophore element distance, pharmacophore element CA5” value was 0 and the “Ligand-pharmacophore element distance, pharmacophore element CA6” value was 0. The “d(CA1,C5)” value [1] was 3.14, the “d(CA1,O1)” value [1] was 4.83 and the “d(CA1,O2)” value [1] was 4.83. For the same compound, the “d(CA1,O4)” value [1] was 2.77, the “d(H4,O1)” value [1] was 2.08 and the “d(H4,O2)” value [1] was 2.49. For the same compound, the “d(O1,O2)” value [1] was 3.35, the “d(O4,H2)” value [1] was 0.97 and the “d(N2,C2)” value [2] was 1.47. The “d(N2,CA2)” value [2] was 5.74, the “d(O2,H3)” value [2] was 3.26 and the “d(O2,N2)” value [2] was 3.04. For the same compound, the “a(C5, CA1, O1)” value (Table A6-1 pharmacophore angle) was 158.86, the “a(CA1, O1, O2)” value (Table A6-1 pharmacophore angle) was 110.36 and the “a(CA1, O4, H2)” value (Table A6-1 pharmacophore angle) was 126.10. For the same compound, the “a(O1, CA1, O4)” value (Table A6-1 pharmacophore angle) was 67.29, the “a(O1, O2, H4)” value (Table A6-1 pharmacophore angle) was 86.28 and the “a(O1, O2, H3)” value (Table A6-2 pharmacophore angle) was 137.32. For the same compound, the “a(O1, O2, N2)” value (Table A6-2 pharmacophore angle) was 140.50, the “a(O2, N2, C2)” value (Table A6-2 pharmacophore angle) was 114.22 and the “a(O2, N2, CA2)” value (Table A6-2 pharmacophore angle) was 151.33. For the same compound, the “Pharmacophore torsion angle a(C5, CA1, O1, H4)” value [3] was 30.48, the “Pharmacophore torsion angle a(H4, O1, O2, H3)” value [3] was −121.10 and the “Pharmacophore torsion angle a(H4, O1, O2, N2)” value [3] was −116.26. For the same compound, the “Pharmacophore torsion angle a(O1, H4, O2, CA1)” value [3] was −57.85, the “Pharmacophore torsion angle a(O1, O2, N2, C2)” value [3] was 144.61 and the “Pharmacophore torsion angle a(O1, O2, N2, CA2)” value [4] was 143.84.

Source: patent US12195427B2, “MASP-2 inhibitors and methods of use” (priority 2018, dated 2025)
